Results on one molecule are retold here after patent US11814366B2, “Antiviral compounds and use thereof” (UNIVERSITA DEGLI STUDI DI SIENA, priority 2018, dated 2023).

The subject of data set [1] is VSV. The data set can be described thus: microbe, parasite or virus in culture. The data set is classed as cell-based, Vesicular Stomatitis Virus (VSV). The conditions noted are these: Vesicular stomatitis virus, Vero.
Data set [2] concerns HSV-2. Kind of data set: Pretreatment assay, Vero cells treated before HSV-2. The class given is cell-based, Herpes 2 virus (HSV-2). The conditions noted are these: Vero cells pretreated 2 h at 37° C., then HSV-2. The protocol:
Vero Cells were pretreated for 2 h at 37° C. with increasing concentrations of compound 15b in DMSO the inocula were then removed cells washed and HSV-2 was added on cells for 2 h at 37° C. Subsequently the same protocol described above for the evaluation of HSV inhibition was followed.

Data set [3] can be described thus: in vitro. The conditions noted are these: African green monkey.

The structures appear in SMILES notation. Some results are limits rather than exact numbers.

In data set [1], `O=C1NC(=S)N(CCc2ccccc2)C(=O)/C1=C\c1ccc(-c2ccc(C(=O)O)c(O)c2)[nH]1` [Compound 15b, (Z)-4-(5-((4,6-dioxo-1-phenethyl-2-thioxotetrahydropyrimidin-5(2H)-ylidene)methyl)-1H-pyrrol-2-yl)-2-hydroxybenzoic Acid] displayed an EC50 of 0.144 µM. Moreover, the EC90 in data set [1] is 2.17 µM. The “antiviral activity in pre-treatment assay” value in data set [2] is “inactive”. Also, the CC50 in data set [3] (CC50, conditions of the HSV-1 assay) is greater than 300 µM; in data set [3] (CC50, conditions of the HSV-2 Acy R assay), greater than 300 µM; in data set [3] (CC50, conditions of the HSV-2 assay (Table 2)), greater than 300 µM; in data set [3] (CC50, conditions of the ZIKAV assay (Table 3)) it was greater than 111 µM.

In general, EC50 refers to the concentration that produces a half-maximal response. Read a high EC50 as a need for much substance. In general, EC90 refers to the point of the concentration-response curve where the effect stands at 90%. Higher therefore signals weaker potency.
